Here are results for one substance from patent publication US8741644B2, “Method for producing mast cells from pluripotent stem cells” (Kyoto University, priority 2009, dated 2014).

The assay deals with hESC-MCs. As to the kind of experiment: Activation of MCs: histamine release from hESC-MCs upon stimulation (ELISA histamine kit). In kind it is cell-based, human. Particulars: hESC (H1)-derived mast cells, 15 min at 37° C., FIG. 13. Here is the method: For stimulation, substance P (Sigma), compound 48/80 or control medium was added to a 25 μl cell suspension (4×10^5 MCs/ml) in 96-well plates, and incubated for further 15 min at 37° C. The reaction was stopped by adding 200 μl ice-cold buffer. The cells were separated by centrifugation at 300×g for 7 min at 4° C., and the supernatant was collected. The cell pellet was resuspended in […] containing 0.5% Triton-X and 0.1% bovine serum albumin (BSA), quick frozen in liquid nitrogen and thawed 4 times. After centrifugation at 12,000×g for 15 min at 4° C., the soluble extract was collected. Histamine levels were measured by an ELISA histamine kit (Beckman Coulter)
(ELISA stands for enzyme-linked immunosorbent assay.)

Where no end group is shown, it is not given here.

With “substance P (RPKPQQFFGLM; ends and bridges not checked; UniProt P20366 58-68, looked up) [neuropeptide used as mast cell stimulant (Sigma)]”, the “degranulation to release histamine” value is on record as “dose-dependent degranulation”.
